What was measured:
Format in all cases: functional, cell-based
[1] = molecular target: T1, ATP-dependent translocase ABCB1 (Homo sapiens, UniProt P08183); experiment: TP_TRANSPORTER: inhibition of Digoxin transepithelial transport (basal to apical) (Digoxin: 0.025 uM) in MDR1-expressing LLC-PK1 cells
[2] = molecular target: T1, ATP-dependent translocase ABCB1; experiment: TP_TRANSPORTER: inhibition of Daunorubicin transepithelial transport (basal to apical) (Daunorubicin: 0.035 uM) in MDR1-expressing LLC-PK1 cells
[3] = molecular target: T1, ATP-dependent translocase ABCB1; experiment: TP_TRANSPORTER: inhibition of Digoxin transepithelial transport (basal to apical)(Digoxin: 0.025 uM, 1'-hydroxymidazolam: 50 uM) in MDR1-expressing LLC-PK1 cells; conditions: pig, llc-pk1, 50 µM
[4] = molecular target: T1, ATP-dependent translocase ABCB1; experiment: TP_TRANSPORTER: inhibition of Daunorubicin transepithelial transport (basal to apical)(Daunorubicin: 0.035 uM, 1'-hydroxymidazolam: 50 uM) in MDR1-expressing LLC-PK1 cells; conditions: pig, llc-pk1, 50 µM
[5] = molecular target: T1, ATP-dependent translocase ABCB1; experiment: TP_TRANSPORTER: inhibition of Digoxin transepithelial transport (basal to apical)(Digoxin: 0.025 uM, Midazolam: 50 uM) in MDR1-expressing LLC-PK1 cells; conditions: pig, llc-pk1, 50 µM
[6] = molecular target: T1, ATP-dependent translocase ABCB1; experiment: TP_TRANSPORTER: inhibition of Daunorubicin transepithelial transport (basal to apical)(Daunorubicin: 0.035 uM, Midazolam: 50 uM) in MDR1-expressing LLC-PK1 cells; conditions: pig, llc-pk1, 50 µM
[7] = molecular target: T1, ATP-dependent translocase ABCB1; experiment: TP_TRANSPORTER: inhibition of Daunorubicin transepithelial transport (basal to apical)(Daunorubicin: 0.035 uM, 4-hydroxymidazolam: 50 uM) in MDR1-expressing LLC-PK1 cells; conditions: pig, llc-pk1, 50 µM
[8] = molecular target: T1, ATP-dependent translocase ABCB1; experiment: TP_TRANSPORTER: inhibition of Digoxin transepithelial transport (basal to apical)(Digoxin: 0.025 uM, Testosterone: 50 uM) in MDR1-expressing LLC-PK1 cells; conditions: pig, llc-pk1, 50 µM
[9] = molecular target: T1, ATP-dependent translocase ABCB1; experiment: TP_TRANSPORTER: inhibition of Daunorubicin transepithelial transport (basal to apical)(Daunorubicin: 0.035 uM, Testosterone: 50 uM) in MDR1-expressing LLC-PK1 cells; conditions: pig, llc-pk1, 50 µM
[10] = molecular target: T1, ATP-dependent translocase ABCB1; experiment: TP_TRANSPORTER: inhibition of Digoxin transepithelial transport (basal to apical)(Digoxin: 0.025 uM, 6-hydroxyazelastine: 50 uM) in MDR1-expressing LLC-PK1 cells; conditions: pig, llc-pk1, 50 µM
[11] = molecular target: T1, ATP-dependent translocase ABCB1; experiment: TP_TRANSPORTER: inhibition of Daunorubicin transepithelial transport (basal to apical)(Daunorubicin: 0.035 uM, 6-hydroxyazelastine: 50 uM) in MDR1-expressing LLC-PK1 cells; conditions: pig, llc-pk1, 50 µM
[12] = molecular target: T1, ATP-dependent translocase ABCB1; experiment: TP_TRANSPORTER: inhibition of Daunorubicin transepithelial transport (basal to apical)(Daunorubicin: 0.035 uM, 6beta-hydroxytestosterone: 50 uM) in MDR1-expressing LLC-PK1 cells; conditions: pig, llc-pk1, 50 µM
[13] = molecular target: T1, ATP-dependent translocase ABCB1; experiment: TP_TRANSPORTER: inhibition of Digoxin transepithelial transport (basal to apical)(Digoxin: 0.025 uM, 6beta-hydroxytestosterone: 50 uM) in MDR1-expressing LLC-PK1 cells; conditions: pig, llc-pk1, 50 µM
[14] = molecular target: T1, ATP-dependent translocase ABCB1; experiment: TP_TRANSPORTER: inhibition of Daunorubicin transepithelial transport (basal to apical) (Daunorubicin: 0.035 uM, Oxidized nifedipine: 50 uM) in MDR1-expressing LLC-PK1 cells; conditions: pig, llc-pk1, 50 µM
[15] = molecular target: T1, ATP-dependent translocase ABCB1; experiment: TP_TRANSPORTER: inhibition of Digoxin transepithelial transport (basal to apical) (Digoxin: 0.025 uM, Oxidized nifedipine: 50 uM) in MDR1-expressing LLC-PK1 cells; conditions: pig, llc-pk1, 50 µM
[16] = molecular target: T1, ATP-dependent translocase ABCB1; experiment: TP_TRANSPORTER: inhibition of Daunorubicin transepithelial transport (basal to apical) (Daunorubicin: 0.035 uM, Nifedipine: 50 uM) in MDR1-expressing LLC-PK1 cells; conditions: pig, llc-pk1, 50 µM

T1 sequence (P08183 whole entry): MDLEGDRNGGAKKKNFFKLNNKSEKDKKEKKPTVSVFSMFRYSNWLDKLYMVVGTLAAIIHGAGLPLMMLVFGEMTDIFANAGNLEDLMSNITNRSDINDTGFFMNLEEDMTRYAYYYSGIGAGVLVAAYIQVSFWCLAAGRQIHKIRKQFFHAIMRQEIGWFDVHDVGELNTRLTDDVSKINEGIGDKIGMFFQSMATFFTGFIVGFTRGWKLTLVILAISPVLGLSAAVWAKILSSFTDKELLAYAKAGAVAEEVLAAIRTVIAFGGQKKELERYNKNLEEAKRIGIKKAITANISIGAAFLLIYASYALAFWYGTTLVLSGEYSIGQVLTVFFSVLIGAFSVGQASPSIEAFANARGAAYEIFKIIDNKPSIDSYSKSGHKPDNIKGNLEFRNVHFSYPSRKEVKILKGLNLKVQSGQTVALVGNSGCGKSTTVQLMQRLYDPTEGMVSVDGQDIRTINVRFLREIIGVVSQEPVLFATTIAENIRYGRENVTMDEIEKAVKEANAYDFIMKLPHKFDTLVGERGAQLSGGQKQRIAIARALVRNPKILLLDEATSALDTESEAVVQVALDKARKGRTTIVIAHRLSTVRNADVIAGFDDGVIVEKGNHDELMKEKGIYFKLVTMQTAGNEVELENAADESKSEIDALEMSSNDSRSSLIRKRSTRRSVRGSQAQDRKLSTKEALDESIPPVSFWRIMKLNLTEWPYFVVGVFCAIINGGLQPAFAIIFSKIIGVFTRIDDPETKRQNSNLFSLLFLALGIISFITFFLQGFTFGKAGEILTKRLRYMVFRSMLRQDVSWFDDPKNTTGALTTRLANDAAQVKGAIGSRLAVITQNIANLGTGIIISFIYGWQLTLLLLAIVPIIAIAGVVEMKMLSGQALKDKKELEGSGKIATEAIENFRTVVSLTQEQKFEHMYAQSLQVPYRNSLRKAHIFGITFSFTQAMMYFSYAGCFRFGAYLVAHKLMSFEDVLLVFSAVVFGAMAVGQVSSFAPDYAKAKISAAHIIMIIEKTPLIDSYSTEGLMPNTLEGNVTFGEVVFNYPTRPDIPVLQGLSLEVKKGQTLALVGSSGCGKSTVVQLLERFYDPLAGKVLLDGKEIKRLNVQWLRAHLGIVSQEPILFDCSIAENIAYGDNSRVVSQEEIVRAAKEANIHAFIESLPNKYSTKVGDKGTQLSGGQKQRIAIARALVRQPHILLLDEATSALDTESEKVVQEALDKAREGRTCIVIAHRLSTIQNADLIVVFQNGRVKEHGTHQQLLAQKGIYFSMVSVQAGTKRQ

## CCCCc1oc2ccccc2c1C(=O)c1cc(I)c(OCCNCC)c(I)c1 [DESETHYLAMIODARONE]
[1]
  IC50: 25.2 µM
[2]
  IC50: 15.4 µM

## OCc1ncc2n1-c1ccc(Cl)cc1C(c1ccccc1F)=NC2 [ALPHA-HYDROXY-MIDAZOLAM]
[3]
  Activity: is not an inhibitor [-]
[4]
  Activity: is not an inhibitor [-]

## O=c1c2ccccc2c(Cc2ccc(Cl)cc2)nn1C1CCCNCC1 (stereo not given) [DESMETHYLAZELASTINE]
[1]
  IC50: 41.8 µM
[2]
  IC50: 11.8 µM

## Cc1ncc2n1-c1ccc(Cl)cc1C(c1ccccc1F)=NC2 [MIDAZOLAM]
[5]
  Activity: is not an inhibitor [-]
[6]
  Activity: is not an inhibitor [-]

## Cc1ncc2n1-c1ccc(Cl)cc1C(c1ccccc1F)=NC2O (stereo not given) [4-Hydroxymidazolam]
[7]
  Activity: is not an inhibitor [-]

## C[C@]12CC[C@H]3[C@@H](CCC4=CC(=O)CC[C@@]43C)[C@@H]1CC[C@@H]2O [TESTOSTERONE]
[8]
  Activity: is not an inhibitor [-]
[9]
  Activity: is not an inhibitor [-]

## CN1CCCC(N2NC(Cc3ccc(Cl)cc3)c3cc(O)ccc3C2=O)CC1 (stereo not given) [6-hydroxyazelastine]
[10]
  Activity: is not an inhibitor [-]
[11]
  Activity: is not an inhibitor [-]

## CN1CCCC(n2nc(Cc3ccc(Cl)cc3)c3ccccc3c2=O)CC1 (stereo not given) [AZELASTINE]
[1]
  IC50: 30 µM
[2]
  IC50: 16 µM

## C[C@]12CC[C@H]3[C@@H](C[C@@H](O)C4=CC(=O)CC[C@@]43C)[C@@H]1CC[C@@H]2O [6beta-hydroxytestosterone]
[12]
  Activity: is not an inhibitor [-]
[13]
  Activity: is not an inhibitor [-]

## COC(=O)c1c(C)nc(C)c(C(=O)OC)c1-c1ccccc1[N+](=O)[O-]
[14]
  Activity: is not an inhibitor [-]
[15]
  Activity: is not an inhibitor [-]

## COC(=O)C1=C(C)NC(C)=C(C(=O)OC)C1c1ccccc1[N+](=O)[O-] [NIFEDIPINE]
[16]
  Activity: is not an inhibitor [-]

From ChEMBL document CHEMBL2074031, “Inhibitory effects of CYP3A4 substrates and their metabolites on P-glycoprotein-mediated transport” (Eur J Pharm Sci, 2001)
